4 compounds from PMC6520522, “In vitro and in vivo Metabolism of a Potent Inhibitor of Soluble Epoxide Hydrolase, 1-(1-Propionylpiperidin-4-yl)-3-(4-(trifluoromethoxy)phenyl)urea” (Frontiers in Pharmacology, 2019) can be followed below.

One data set addresses T1, recombinant human sEH (Homo sapiens, UniProt P34913).
T1 sequence (P34913 1-555): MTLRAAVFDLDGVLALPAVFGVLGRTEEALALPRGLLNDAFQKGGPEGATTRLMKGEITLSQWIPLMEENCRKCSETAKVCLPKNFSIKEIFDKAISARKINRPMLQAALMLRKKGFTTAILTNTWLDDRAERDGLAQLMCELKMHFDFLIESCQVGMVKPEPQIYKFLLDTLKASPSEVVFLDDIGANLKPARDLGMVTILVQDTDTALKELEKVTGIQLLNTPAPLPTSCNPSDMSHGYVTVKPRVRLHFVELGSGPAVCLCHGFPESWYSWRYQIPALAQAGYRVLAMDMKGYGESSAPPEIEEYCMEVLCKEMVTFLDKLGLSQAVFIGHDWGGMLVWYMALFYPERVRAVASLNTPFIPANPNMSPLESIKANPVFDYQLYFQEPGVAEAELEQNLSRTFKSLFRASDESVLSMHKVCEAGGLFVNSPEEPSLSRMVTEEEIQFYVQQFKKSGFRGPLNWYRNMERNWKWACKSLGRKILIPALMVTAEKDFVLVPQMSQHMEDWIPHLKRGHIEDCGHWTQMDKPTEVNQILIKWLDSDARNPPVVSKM
Put plainly: sEH inhibition potency, CMNPC fluorescent assay. Format: biochemical. Conditions: for IC50: CMNPC fluorescent assay, recombinant human sEH 1 nM, 30°C, average of three replicates, read-out: HsEH IC50. The method, then:
Briefly, recombinant human sEH [1 nM in sodium phosphate buffer (0.1 M, pH = 7.4, 0.1 mg/mL BSA)] was incubated with each analyte (0.1 < [I]final < 10,000 nM) at 30°C for 5 min. Then, the reaction was started with the addition to CMNPC ([S]final = 5 μM). The reaction was monitored kinetically for 10 min at 30°C. The formation of the fluorescent product 6-methoxynaphthaldehyde (λexcitation = 330 nm, λemission = 465 nm, 30°C) was measured every 30 s. IC50 values were determined by regression of the remaining activity in function of the inhibitor concentrations. Assays were run in triplicate and IC50 values are the averages of three replicates.

The nature of data set [1]: Blood pharmacokinetics of TPPU and its metabolites after single oral dose in rats. Format: in vivo. Conditions: for half-life: male, Sprague Dawley, rat, whole blood, po, 10 mg/kg, oral gavage 10 mg/kg, n = 4, read-out: T1/2 (half-life) (converted); for share of the total TPPU-related exposure in blood: rat blood, single oral dose of TPPU, over 72 h. The method, then:
(§1) Healthy male rats (Sprague Dawley, n = 4) were housed in temperature-controlled housing with ad libitum standard chow and drinking water. Each rat received TPPU (dissolved in 0.5 mL PEG400) at a dose of 10 mg/kg by oral gavage in order to generate significant amounts of metabolites while corresponding to previous efficacious concentration doses. Both blood and urine samples were collected. Blood samples (10 μL) at time points of 0 (before dosing), 0.25, 0.5, 1, 2, 4, 8, 12, 24, 48, and 72 h post dose were collected from the tail vein. Collected blood samples were transferred to Eppendorf tubes containing 90 μL of EDTA solution (0.1% EDTA and 0.1% acetic acid) and were immediately shaken to avoid blood coagulation. The urine and feces samples were passively collected at the time points of 8, 12, 24, 48, and 72 h post dose. TAPU (10 μL) of 1 μM in methanol was added in each blood and urine sample as an internal standard solution. The blood sample extraction was performed with 200 μL ethyl acetate by liquid-liquid extraction. The representative urine samples were subjected to protein precipitation prior to analysis of TPPU and Phase I metabolites. Briefly, urine (10 μL) was treated with 50 μL acetonitrile. After vortex mixing and centrifugation, the supernatant was collected. The feces samples (50–100 mg) were extracted using 600 μL extraction solution (MeOH: EA = 1:1). The mixtures were kept at −20°C overnight to give efficient extraction of TPPU and its metabolites. On day 2, after vortex mixing and centrifugation, the supernatant was collected. The remaining residue was extracted an additional time with 300 μL extraction solution, and the supernatant was combined after centrifugation. The collected supernatants were dried using a speed vacuum concentrator and reconstituted in 50 μL of 100 nM CUDA solution in methanol. In addition, urine (10 μL) was diluted with water (50 μL) and then subjected to analysis of glucuronide or sulfate conjugates.
(§2) LC-MS/MS analysis was conducted on an Agilent SL 1200 series LC system (Agilent, Palo Alto, CA) connected to a 4,000 Qtrap mass spectrometer (Applied Biosystems Instrument Corporation, Foster City, CA) with Turbo V ion source. Liquid chromatography was performed on a Kinetex® C18 column (100 × 2.1 mm, 1.7 μm). Three μL solution was injected onto the column held at 45°C for analysis. Mobile phase A and B were water with 0.1% acetic acid and acetonitrile with 0.1% acetic acid, respectively. The LC flow rate was 300 μL/min.
(§3) The mass spectrometer was operated in both negative and positive modes. Three different scan types were employed to perform mass spectrometry analysis, including product ion scan, precursor ion scan (optimized parameters in Table S4) and MRM scan (optimized parameters in Table S5).

A short description of data set [2]: Feces levels of TPPU and metabolites after single oral dose in rats. Format: in vivo. The note with it: male, Sprague Dawley, feces, rat, single oral dose 10 mg/kg TPPU, n = 3; for concentration at 8 h: 8h post dose; for concentration at 12 h: 12h post dose; for concentration at 24 h: 24h post dose; for concentration at 48 h: 48h post dose; for concentration at 72 h: 72h post dose.

The nature of data set [3]: In vitro metabolism of TPPU in liver S9 fractions. It counts as in vitro ADME, human, monkey, dog, rat, mouse. The note with it: for formation of metabolite in liver S9 fractions: with NADPH regeneration system, rat, mouse, dog, monkey, human, 2 h; for formation of metabolite in liver S9 fractions in the absence of a NADPH generation system: without NADPH, liver S9 fractions (Figure S1: human). On the procedure:
The in vitro study of TPPU metabolism was conducted following previous methods as described (Watanabe and Hammock, [2001]). Briefly, 1 μL of TPPU (1 mM in DMSO; [TPPU]final = 10 μM) was mixed with 94 μL of diluted liver S9 fractions (final, 0.05 mg protein/mL) from human, monkey, dog, rat, and mouse and incubations were conducted in a 10 mL glass vial. After 5 min preincubation at 37°C, the reaction was initiated by adding 5 μL of NADPH regeneration solution. The NADPH regeneration solution was prepared by mixing 50 μL of NADP^+ (100 mM), 50 μL of G6P (500 mM), 50 μL of G6PDH (100 Unit/mL), and 100 μL of sodium phosphate buffer. Incubation without NADPH regeneration solution was used as control. Reactions were kept for 2 h and terminated by addition of 100 μL of ice-cold methanol containing CUDA (200 nM) as an internal standard. The mixture was followed by vigorous mixing for 2 min and centrifuging at 10,000^*g for 10 min. Each supernatant was transferred to an HPLC vial and kept under 4°C until LC-MS analysis.
as §2

The nature of data set [4]: Urine levels of TPPU and metabolites after single oral dose in rats. The note with it: male, Sprague Dawley, rat, single oral dose 10 mg/kg TPPU, n = 3; for concentration at 8 h: 8h post dose; for concentration at 12 h: 12h post dose; for concentration at 24 h: 24h post dose; for concentration at 48 h: 48h post dose; for concentration at 72 h: 72h post dose. It counts as in vivo.

Data set [5] is described as follows: Metabolite identification/screening by LC-MS/MS (precursor ion scans, LC-MRM-MS) in rats. It counts as in vivo, rat. The note with it: for detection as TPPU metabolite: LC-MS/MS, in vivo in rats (blood, urine), Table 1 footnote: in vitro and in vivo; for share of TPPU metabolism, if formed: not detected by the LC-MRM-MS method; for concentration in rat urine, if formed (below method detection limit): rat urine after oral TPPU, LC-MRM-MS, no peak found, LOD. On the procedure:
as §1, with “[…].” for “Each rat received TPPU (dissolved in 0.5 mL PEG400) at a dose of 10 mg/kg by oral gavage in order to generate significant amounts of metabolites while corresponding to previous efficacious concentration doses.”
as §2, §3
. The other minor fragment ion at m/z 85 appeared at higher-energy collision induced dissociation (CID, 38 eV) and is derived from the C-O bond cleavage on the trifluoromethoxyphenyl group (Figure 1B). To support the structural identification of TPPU metabolites, six putative metabolites, M1–M4, α-keto amide metabolite and 4-(trifluoromethoxy)aniline were synthesized and analyzed by LC-MS/MS (Figure 2 and Table 2). In the negative ion mode, the fragment ion at m/z 176 was generated by all five synthetic putative metabolites (M1–M4 and α-keto amide metabolite). Apparently, this fragment ion (m/z 176) is a characteristic fragment that is generated by metabolites containing the 4-(trifluoromethoxy)aniline moiety. Therefore, precursor ion scan for m/z 176 can be used to screen for this kind of TPPU metabolite. The method limit of detection (LOD) is 2 ng/mL. In addition, the fragment ion at m/z 85 (from the trifluoro-methoxy) was also generated by these synthetic standards. […]. Therefore, precursor ion scan for m/z 85 can unveil a large number of possible TPPU metabolites, such as the ones-formed from amide hydrolysis and oxidation at aliphatic groups, aromatic ring, and nitrogen center. […]. […]

Where “and” joins values, the source holds several entries; their conditions need not be identical. Equal values may be shown once. Where only a bound is given, the exact number is not on record here.

Usually IC50 stands for the concentration that gives 50% inhibition. With `O=C(Nc1ccc(OC(F)(F)F)cc1)NC1CCNCC1` [Compound M3, 1-(piperidin-4-yl)-3-(4-(trifluoromethoxy)phenyl)urea], the 50% inhibitory concentration (IC50) on recombinant human sEH was 83.5 nM and 83 nM. In addition, the “fold lower potency than TPPU toward human sEH” value at recombinant human sEH (ratio of IC50 values, versus TPPU) is listed as 80 fold. In addition, in data set [1], the half-life is 14 ± 2.7 h and the “share of the total TPPU-related exposure in blood” value is on record as below 0.4%. In addition, in data set [2], the concentration at 8 h amounted to 3.6 ng/mL, the concentration at 12 h is 8.3 ng/mL, the concentration at 24 h came out at 1.1 ng/mL and the concentration at 48 h turned out to be 3.4 ng/mL. Besides, in data set [2], the concentration at 72 h came to 1.7 ng/mL. In addition, in data set [3], the “formation of metabolite in liver S9 fractions” value is reported as “found in all species tested” and the “formation of metabolite in liver S9 fractions in the absence of a NADPH generation system” value is reported as “could still be produced”. In data set [4], the concentration at 8 h was determined as 2.5 ng/mL, the concentration at 12 h is 2.9 ng/mL, the concentration at 24 h came out at 1 ng/mL and the concentration at 48 h is 1.5 ng/mL. Further, in data set [4], the concentration at 72 h turned out to be 44 ± 21 ng/mL.
As for `CC(=O)C(=O)N1CCC(NC(=O)Nc2ccc(OC(F)(F)F)cc2)CC1` [α-Keto amide, 1-(1-(2-oxopropanoyl)piperidin-4-yl)-3-(4-(trifluoromethoxy)phenyl)urea], in data set [5], the “detection as TPPU metabolite” value is “not detectable”; the “share of TPPU metabolism, if formed” value is recorded as below 0.01%; the “concentration in rat urine, if formed (below method detection limit)” value is below 0.5 ng/mL.
For `O=C(Nc1ccc(OC(F)(F)F)cc1)NC1CCN(C(=O)CCO)CC1` [Compound M2, 1-(1-(3-hydroxypropanoyl)piperidin-4-yl)-3-(4-(trifluoromethoxy)phenyl)urea], the IC50 at recombinant human sEH amounted to 16 ± 2 nM. Also, in data set [1], the half-life was 9.7 ± 0.8 h and the “share of the total TPPU-related exposure in blood” value is recorded as below 0.4%. In addition, in data set [2], the concentration at 8 h was 4.3 ng/mL, the concentration at 12 h was found to be 6.8 ng/mL, the concentration at 24 h stood at 6.7 ng/mL and the concentration at 48 h came to 1.9 ng/mL. Also, the concentration at 72 h in data set [2] is 43 ± 31 ng/mL. In data set [3], the “formation of metabolite in liver S9 fractions” value is reported as “found in all species tested” and the “formation of metabolite in liver S9 fractions in the absence of a NADPH generation system” value is “failed to be detected”. In data set [4], the concentration at 8 h was determined as 2.7 ng/mL, the concentration at 12 h stood at 3.2 ng/mL, the concentration at 24 h came to 7.6 ng/mL and the concentration at 48 h turned out to be 3 ng/mL. Further, the concentration at 72 h in data set [4] came to 61 ± 60 ng/mL.
With 4-(trifluoromethoxy)aniline, in data set [5], the “detection as TPPU metabolite” value is “not detectable”; the “share of TPPU metabolism, if formed” value is listed as below 0.01%; the “concentration in rat urine, if formed (below method detection limit)” value is recorded as below 0.1 ng/mL.
